Numbered stars: 1 amine (or outer) side, 2 acyl side, 3 side chain; on linkers, the order of the positions; unused ones are H or OH. Bridge positions count the residues as written; N and C are the ends. Square brackets hold non-standard residues; d marks the D form. Peptide text beside a SMILES is read from it. X3 = O=C(/C=N/OCCCCCCOc1cc(C[*:2])cc(C[*:3])c1)[*:1]; X1 = O=C(C=NOCCCCCCOc1cc(C[*:2])cc(C[*:3])c1)[*:1]; X5 = O=C(CCCCCCOc1cc(C[*:2])cc(C[*:3])c1)[*:1]; dMet(O) = CS(=O)CC[C@@H](N)C(=O)O; tBuAla = CC(C)(C)C[C@H](N)C(=O)O; Cba = N[C@@H](CC1CCC1)C(=O)O; Nle = CCCC[C@H](N)C(=O)O
Target: T1, rh-integrin α4β7/LPAM-1 (Homo sapiens, UniProt P13612+P26010)
T1 sequence (P13612 34-977 limits assumed): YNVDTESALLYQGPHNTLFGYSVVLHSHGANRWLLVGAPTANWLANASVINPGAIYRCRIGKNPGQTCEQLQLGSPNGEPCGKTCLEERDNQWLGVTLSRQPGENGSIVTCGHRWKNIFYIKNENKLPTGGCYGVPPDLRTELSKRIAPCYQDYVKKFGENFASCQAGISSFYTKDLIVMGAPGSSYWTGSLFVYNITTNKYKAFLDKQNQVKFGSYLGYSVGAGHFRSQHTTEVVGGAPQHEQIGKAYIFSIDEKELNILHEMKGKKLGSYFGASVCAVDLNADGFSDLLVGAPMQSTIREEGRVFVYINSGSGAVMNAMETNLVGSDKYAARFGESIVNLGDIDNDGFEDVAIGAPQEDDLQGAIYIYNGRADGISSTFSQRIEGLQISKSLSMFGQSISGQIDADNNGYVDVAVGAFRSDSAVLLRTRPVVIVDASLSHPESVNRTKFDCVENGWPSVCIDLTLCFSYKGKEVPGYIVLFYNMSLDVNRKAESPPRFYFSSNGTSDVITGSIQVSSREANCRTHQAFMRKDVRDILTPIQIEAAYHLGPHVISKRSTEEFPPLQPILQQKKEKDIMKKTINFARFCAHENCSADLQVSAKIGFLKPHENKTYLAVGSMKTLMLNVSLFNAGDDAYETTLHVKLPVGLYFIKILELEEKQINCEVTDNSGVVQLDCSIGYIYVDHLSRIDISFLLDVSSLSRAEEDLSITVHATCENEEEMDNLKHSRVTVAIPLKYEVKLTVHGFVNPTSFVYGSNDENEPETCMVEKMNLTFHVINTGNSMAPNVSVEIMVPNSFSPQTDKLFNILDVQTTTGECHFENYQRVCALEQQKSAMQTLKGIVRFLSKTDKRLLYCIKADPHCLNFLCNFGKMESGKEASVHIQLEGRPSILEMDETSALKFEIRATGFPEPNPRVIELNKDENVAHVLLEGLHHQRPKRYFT
T1 sequence (P26010 20-723 limits assumed): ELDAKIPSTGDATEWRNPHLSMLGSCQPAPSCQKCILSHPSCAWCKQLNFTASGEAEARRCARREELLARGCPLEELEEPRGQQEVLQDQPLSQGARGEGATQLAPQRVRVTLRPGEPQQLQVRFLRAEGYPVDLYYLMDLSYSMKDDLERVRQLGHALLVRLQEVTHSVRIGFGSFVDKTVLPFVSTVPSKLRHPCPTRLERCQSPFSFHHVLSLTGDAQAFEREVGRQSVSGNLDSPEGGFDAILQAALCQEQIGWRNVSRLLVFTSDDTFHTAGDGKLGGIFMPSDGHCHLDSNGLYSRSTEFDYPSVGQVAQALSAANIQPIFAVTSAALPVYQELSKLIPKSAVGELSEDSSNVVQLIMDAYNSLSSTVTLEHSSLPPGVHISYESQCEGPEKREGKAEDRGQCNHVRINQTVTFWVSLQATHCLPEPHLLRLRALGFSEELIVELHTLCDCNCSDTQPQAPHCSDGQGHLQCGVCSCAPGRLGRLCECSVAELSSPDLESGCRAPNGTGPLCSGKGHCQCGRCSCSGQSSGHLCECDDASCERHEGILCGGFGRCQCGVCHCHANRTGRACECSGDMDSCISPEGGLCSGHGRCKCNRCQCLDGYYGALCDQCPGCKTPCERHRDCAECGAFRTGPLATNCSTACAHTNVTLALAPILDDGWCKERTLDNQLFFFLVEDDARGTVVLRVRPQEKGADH
Assay: α4β7-MadCAM Competition ELISA (Example 4)
Type: binding
Conditions: Table 3 Representative compounds; inhibition of MAdCAM binding to coated α4β7; read-out: IC50
Procedure: After washing with wash buffer, 200 μL assay buffer was added to each well and incubated for one hour at 28° C. After another wash with wash buffer, 100 μL of a MAdCAM and peptide mixture in assay buffer was added to each well and incubated for one hour at 28° C., followed by washing with wash buffer.

Q: Which IC50 does the source give for `CC(C)C[C@@H]1NC(=O)/C=N/OCCCCCCOc2cc3cc(c2)CSC[C@H](NC1=O)C(=O)N[C@@H](Cc1ccc(O)cc1)C(=O)N1CCC[C@H]1C(=O)N[C@@H](CC(=O)O)C(=O)N[C@@H]([C@@H](C)O)C(=O)N[C@@H](Cc1ccc(O)cc1)C(=O)N[C@@H](Cc1cnc[nH]1)C(=O)N[C@H](C(N)=O)CSC3` [compound 73, TSL6- SLCYPDTYHC] (LCYPDTYHC-NH2; linker N-2-9 via X3) here?
A: 30.6 µM

Q: `CC(C)(C)C[C@@H]1NC(=O)[C@H](CC(=O)O)NC(=O)[C@H](CC2CCC2)NC(=O)[C@@H]2CCCN2C(=O)[C@@H]2CSCc3cc(cc(c3)OCCCCCCO/N=C/C(=O)N[C@@H](CCCNC(=N)N)C(=O)N2)CSC[C@@H](C(N)=O)NC(=O)[C@H](CCC(=O)O)NC(=O)[C@H](CCC(N)=O)NC(=O)[C@H](Cc2c[nH]c3ccccc23)NC1=O` [compound 56, TSL6-SRCP{CbA}D {tBuAla}WQEC] (RCP[Cba]D[tBuAla]WQEC-NH2; linker N-2-10 via X3) was tested. Which IC50 did it give?
A: 3.89 µM

Q: With `CC[C@H](C)[C@@H]1NC(=O)[C@H](CC(=O)O)NC(=O)[C@H](CCSC)NC(=O)[C@@H]2CCCN2C(=O)[C@@H]2CSCc3cc(cc(c3)OCCCCCCO/N=C/C(=O)N[C@@H](CCCNC(=N)N)C(=O)N2)CSC[C@@H](C(N)=O)NC(=O)[C@H](CCC(=O)O)NC(=O)CNC(=O)[C@H](C)NC1=O` [compound 13] (RCPMDIAGEC-NH2; linker N-2-10 via X3) as the molecule, how does the IC50 read?
A: 0.227 µM

Q: With `CC(=O)N[C@H]1CSSC[C@@H](C(N)=O)NC(=O)[C@H](CC(C)C)NC(=O)[C@H]([C@@H](C)O)NC(=O)[C@H](CC(=O)O)NC(=O)[C@H](CO)NC(=O)[C@H](CCCNC(=N)N)NC1=O` [compound 5] (Ac-CRSDTLC-NH2; disulfide 1-7) as the molecule, how does the IC50 read?
A: 0.122 µM

Q: For `CC(C)C[C@@H]1NC(=O)CNC(=O)[C@H](Cc2ccc(O)cc2)NC(=O)[C@H](CC(=O)O)NC(=O)[C@H](CO)NC(=O)[C@@H]2CSCc3cc(cc(c3)OCCCCCCO/N=C/C(=O)N[C@@H](C)C(=O)N2)CSC[C@@H](C(N)=O)NC(=O)[C@H](CCC(N)=O)NC1=O` [compound 86, TSL6- SACSDTGLQC] (ACSDYGLQC-NH2; linker N-2-9 via X3), which IC50 is on record?
A: 70.7 µM

Q: How did the IC50 turn out when `CC[C@H](C)[C@@H]1NC(=O)[C@H](CC(=O)O)NC(=O)[C@H](CCSC)NC(=O)[C@@H]2CCCN2C(=O)[C@@H]2CSCc3cc(cc(c3)OCCCCCCO/N=C/C(=O)N[C@@H](C)C(=O)N2)CSC[C@@H](C(N)=O)NC(=O)[C@H]([C@@H](C)O)NC(=O)[C@@H]2CCCN2C1=O` [compound 37, TSL6- SACPMDIPTC] (ACPMDIPTC-NH2; linker N-2-9 via X3) was run?
A: 0.943 µM

Q: Which IC50 does the source give for `C[C@@H](O)[C@@H]1NC(=O)[C@H](CC(=O)O)NC(=O)[C@@H]2CCCN2C(=O)[C@H](Cc2ccc(O)cc2)NC(=O)[C@@H]2CSCc3cc(cc(c3)OCCCCCCO/N=C/C(=O)N[C@@H](CCC(=O)O)C(=O)N2)CSC[C@@H](C(N)=O)NC(=O)[C@H](Cc2cnc[nH]2)NC(=O)[C@H](Cc2ccc(O)cc2)NC1=O` [compound 71, TSL6- SECYPDTYHC] (ECYPDTYHC-NH2; linker N-2-9 via X3) here?
A: 20.2 µM

Q: Which IC50 does the source give for `CC(C)C[C@@H]1NC(=O)[C@@H]2CCCN2C(=O)[C@H](Cc2c[nH]c3ccccc23)NC(=O)[C@@H]2CCCN2C(=O)[C@@H]2CSCc3cc(cc(c3)OCCCCCCO/N=C/C(=O)N[C@@H](CCC(=O)O)C(=O)N2)CSC[C@@H](C(N)=O)NC(=O)[C@H](CCC(N)=O)NC(=O)[C@@H]2CCCN2C1=O` [compound 105, TSL6- SECPWPLPQC] (ECPWPLPQC-NH2; linker N-2-9 via X3) here?
A: 341 µM

Q: How did the IC50 turn out when `C[C@@H]1NC(=O)[C@H](CC(=O)O)NC(=O)[C@@H](CC[S+](C)[O-])NC(=O)[C@@H]2CCCN2C(=O)[C@@H]2CSCc3cc(cc(c3)OCCCCCCO/N=C/C(=O)N[C@@H](CCC(N)=O)C(=O)N2)CSC[C@@H](C(N)=O)NC(=O)[C@H]([C@@H](C)O)NC(=O)[C@@H]2CCCN2C1=O` (stereo partly shown) [compound 67, TSL6-SQCP{Ox-Met}DAPTC] (QCP[dMet(O)]DAPTC-NH2; linker N-2-9 via X3) was run?
A: 15.7 µM

Q: For `NC(=O)[C@@H]1CSCc2cc3cc(c2)OCCCCCCO/N=C/C(=O)N[C@@H](CC(=O)O)C(=O)N[C@@H](CSC3)C(=O)N[C@@H](Cc2ccc(O)cc2)C(=O)N2CCC[C@H]2C(=O)N[C@@H](CC(=O)O)C(=O)N[C@@H](Cc2ccccc2)C(=O)N[C@@H](Cc2ccc(O)cc2)C(=O)N[C@@H](Cc2cnc[nH]2)C(=O)N1` [compound 96, TSL6- SDCYPDFYHC] (DCYPDFYHC-NH2; linker N-2-9 via X3), which IC50 is on record?
A: 124 µM

Q: With `CC[C@H](C)[C@@H]1NC(=O)[C@H](CC(=O)O)NC(=O)[C@H](CCSC)NC(=O)[C@@H]2CCCN2C(=O)[C@@H]2CSCc3cc(cc(c3)OCCCCCCO/N=C/C(=O)N[C@@H](CCCCN)C(=O)N2)CSC[C@@H](C(N)=O)NC(=O)[C@H]([C@@H](C)O)NC(=O)[C@@H]2CCCN2C1=O` [compound 18] (KCPMDIPTC-NH2; linker N-2-9 via X3) as the molecule, how does the IC50 read?
A: 0.345 µM

Same assay, conditions: competition ELISA, 4 μg/mL α4β7 coated, MAdCAM and peptide mixture, 28° C.; read-out: IC50

Q: `CC[C@H](C)[C@@H]1NC(=O)[C@H](C)NC(=O)[C@H](CCSC)NC(=O)[C@@H]2CCCN2C(=O)[C@@H]2CSCc3cc(cc(c3)OCCCCCCON=CC(=O)N[C@@H](CCC(N)=O)C(=O)N2)CSC[C@@H](C(=O)O)NC(=O)[C@H]([C@@H](C)O)NC(=O)[C@@H]2CCCN2C1=O` [SEQ ID NO: 49] (QCPMAIPTC-OH; linker N-2-9 via X1) was tested. Which IC50 did it give?
A: > 500 µM

Q: `CSCC[C@@H]1NC(=O)[C@@H]2CCCN2C(=O)[C@@H]2CSCc3cc(cc(c3)OCCCCCCON=CC(=O)N[C@@H](C)C(=O)N2)CSC[C@@H](C(=O)O)NC(=O)[C@H](CCC(=O)O)NC(=O)CNC(=O)[C@H](C)NC(=O)[C@H](C(C)C)NC(=O)[C@H](CC(=O)O)NC1=O` [SEQ ID NO: 101] (ACPMDVAGEC-OH; linker N-2-10 via X1) was tested. Which IC50 did it give?
A: 5.98 µM

Q: `CCCC[C@@H]1NC(=O)[C@@H]2CCCN2C(=O)[C@@H]2CSCc3cc(cc(c3)OCCCCCCC(=O)NCC(=O)N[C@@H](C)C(=O)N2)CSC[C@@H](C(=O)O)NC(=O)[C@H](CCC(=O)O)NC(=O)[C@H](CCC(N)=O)NC(=O)[C@H](Cc2c[nH]c3ccccc23)NC(=O)[C@H](C(C)C)NC(=O)[C@H](CC(=O)O)NC1=O` [SEQ ID NO: 122] (GACP[Nle]DVWQEC-OH; linker N-3-11 via X5; C-terminus assumed) was tested. Which IC50 did it give?
A: 0.74 µM

Q: `CC[C@H](C)[C@@H]1NC(=O)C=NOCCCCCCOc2cc3cc(c2)CSC[C@H](NC1=O)C(=O)N[C@@H](CCCNC(=N)N)C(=O)N[C@@H]([C@@H](C)O)C(=O)N[C@@H](CC(=O)O)C(=O)N[C@@H](C(C)C)C(=O)N1CCC[C@H]1C(=O)N[C@@H]([C@@H](C)CC)C(=O)N[C@@H](CC(=O)O)C(=O)N[C@H](C(=O)O)CSC3` [SEQ ID NO: 98] (ICRTDVPIDC-OH; linker N-2-10 via X1) was tested. Which IC50 did it give?
A: 14.4 µM

Q: For `N=C(N)NCCC[C@@H]1NC(=O)CNC(=O)[C@H](Cc2ccc(O)cc2)NC(=O)[C@H](Cc2c[nH]c3ccccc23)NC(=O)[C@H](Cc2c[nH]cn2)NC(=O)[C@@H]2CSCc3cc(cc(c3)OCCCCCCON=CC(=O)N[C@@H](CCC(N)=O)C(=O)N2)CSC[C@@H](C(=O)O)NC(=O)[C@H](CO)NC1=O` [SEQ ID NO: 19] (QCHWYGRSC-OH; linker N-2-9 via X1), which IC50 is on record?
A: > 500 µM

Reference: patent publication US20230145835A1, “Modulators of Alpha-4-beta-7 Integrin and MAdCAM” (48HD Biopharma Inc., priority 2021, published 2023)
